In experiment [1] the target is ALK tyrosine kinase receptor (Homo sapiens, UniProt Q9UM73, G1202R). Put plainly: Inhibition of ALK G1202R mutant (unknown origin) using poly (Glu,Tyr)4:1 as substrate after 60 mins by ELISA.
In experiment [2] the test system is A549. The experiment is described as follows: Antiproliferative activity against human A549 cells after 72 hrs by SRB assay. The experiment is classed as functional, cell-based. The settings on record: A549, 72 h. A general note: In SRB staining, fixed cells bind dye roughly in proportion to their protein.
Experiment [3] addresses ALK tyrosine kinase receptor (Homo sapiens, UniProt Q9UM73). The experiment is described as follows: Inhibition of recombinant ALK (unknown origin) using poly (Glu,Tyr)4:1 as substrate after 60 mins by ELISA. On the technique in general: An ELISA detects its analyte on a solid surface through an enzyme-linked reagent.
Experiment [4] concerns the target Heat shock protein HSP 90-alpha (Homo sapiens, UniProt P07900). The experiment is described as follows: Inhibition of FITC-labeled geldanamycin binding to recombinant HSP90alpha (unknown origin) after 1 hr by fluorescence polarization assay. (In general: Polarisation of emitted light reports the rotation of a fluorescent probe.)
Experiment [5] deals with ALK tyrosine kinase receptor (Homo sapiens, UniProt Q9UM73, L1196M). The experiment is described as follows: Inhibition of ALK L1196M mutant (unknown origin) using poly (Glu,Tyr)4:1 as substrate after 60 mins by ELISA.
Sequence of ALK tyrosine kinase receptor (Homo sapiens, UniProt Q9UM73, L1196M) (Q9UM73 19-1620 L1196M limits assumed): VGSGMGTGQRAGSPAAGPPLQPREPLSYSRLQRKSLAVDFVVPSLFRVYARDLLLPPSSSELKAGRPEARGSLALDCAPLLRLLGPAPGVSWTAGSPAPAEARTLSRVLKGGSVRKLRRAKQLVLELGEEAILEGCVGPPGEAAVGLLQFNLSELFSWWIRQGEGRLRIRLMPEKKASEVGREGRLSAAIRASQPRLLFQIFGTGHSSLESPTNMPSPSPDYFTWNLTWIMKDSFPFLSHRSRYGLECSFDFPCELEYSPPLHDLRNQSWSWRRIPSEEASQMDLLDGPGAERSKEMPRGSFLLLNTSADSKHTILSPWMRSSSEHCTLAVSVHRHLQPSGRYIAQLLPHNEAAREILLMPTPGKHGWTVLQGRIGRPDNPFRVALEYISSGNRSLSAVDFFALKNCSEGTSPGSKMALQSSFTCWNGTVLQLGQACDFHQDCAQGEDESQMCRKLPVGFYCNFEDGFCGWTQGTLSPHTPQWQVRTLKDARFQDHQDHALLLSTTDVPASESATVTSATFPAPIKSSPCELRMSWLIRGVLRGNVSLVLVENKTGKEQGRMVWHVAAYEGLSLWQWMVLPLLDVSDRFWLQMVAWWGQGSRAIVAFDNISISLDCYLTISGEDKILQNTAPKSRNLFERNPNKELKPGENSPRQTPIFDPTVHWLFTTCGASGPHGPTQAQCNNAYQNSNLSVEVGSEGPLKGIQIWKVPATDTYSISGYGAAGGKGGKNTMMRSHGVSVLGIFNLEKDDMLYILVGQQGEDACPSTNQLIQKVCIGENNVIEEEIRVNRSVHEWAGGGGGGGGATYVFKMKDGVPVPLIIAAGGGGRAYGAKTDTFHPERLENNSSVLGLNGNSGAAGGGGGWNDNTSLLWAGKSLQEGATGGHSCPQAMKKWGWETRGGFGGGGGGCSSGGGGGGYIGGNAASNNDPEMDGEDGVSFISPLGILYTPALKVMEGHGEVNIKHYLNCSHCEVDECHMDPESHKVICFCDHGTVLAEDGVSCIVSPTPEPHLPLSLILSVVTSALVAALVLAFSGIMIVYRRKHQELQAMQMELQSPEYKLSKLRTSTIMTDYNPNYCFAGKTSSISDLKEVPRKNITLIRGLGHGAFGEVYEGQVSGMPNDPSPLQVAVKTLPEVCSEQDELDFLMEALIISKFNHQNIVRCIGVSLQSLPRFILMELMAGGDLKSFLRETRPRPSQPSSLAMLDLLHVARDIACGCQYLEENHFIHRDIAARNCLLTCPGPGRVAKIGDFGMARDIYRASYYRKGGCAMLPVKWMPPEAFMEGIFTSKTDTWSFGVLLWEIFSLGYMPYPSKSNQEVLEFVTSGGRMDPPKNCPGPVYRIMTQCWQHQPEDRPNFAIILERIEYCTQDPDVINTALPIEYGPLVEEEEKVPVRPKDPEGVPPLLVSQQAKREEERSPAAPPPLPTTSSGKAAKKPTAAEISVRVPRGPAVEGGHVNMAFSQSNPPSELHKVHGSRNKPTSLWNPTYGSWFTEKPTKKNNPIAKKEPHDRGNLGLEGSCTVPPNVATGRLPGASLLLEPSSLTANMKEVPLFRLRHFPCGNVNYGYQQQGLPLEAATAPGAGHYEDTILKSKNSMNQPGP
Experiment [6] relates to MDA-MB-231. The experiment is described as follows: Antiproliferative activity against human MDA-MB-231 cells after 72 hrs by SRB assay. In kind it is functional, cell-based. The settings on record: MDA-MB-231, 72 h.
For experiment [7], the system named is DU-145. The experiment is described as follows: Antiproliferative activity against human DU145 cells after 72 hrs by SRB assay. The settings on record: DU-145, 72 h. In kind it is functional, cell-based.
In experiment [8] the test system is NCI-H460. The experiment is described as follows: Antiproliferative activity against human NCI-H460 cells after 72 hrs by SRB assay. In kind it is functional, cell-based. The note with it: NCI-H460, 72 h.
Experiment [9] is described as follows: Antiproliferative activity against human EBC1/SR cells after 72 hrs by SRB assay. The experiment is classed as functional, cell-based.
Experiment [10] has as its system HCT-116. Put plainly: Antiproliferative activity against human HCT116 cells after 72 hrs by SRB assay. In kind it is functional, cell-based. The settings on record: HCT-116, 72 h.
Experiment [11] deals with EBC-1. Put plainly: Antiproliferative activity against human EBC1 cells after 72 hrs by SRB assay. In kind it is functional, cell-based. The settings on record: EBC-1, 72 h.
The subject of experiment [12] is U-87 MG. The experiment is described as follows: Antiproliferative activity against human U87MG cells after 72 hrs by SRB assay. In kind it is functional, cell-based, U-87MG ATCC.
The test system of experiment [13] is BT-474. The experiment is described as follows: Antiproliferative activity against human BT474 cells after 72 hrs by SRB assay. The experiment is classed as functional, cell-based. The note with it: BT-474, 72 h.
For experiment [14], the system named is NCI-H3122. Put plainly: Antiproliferative activity against human NCI-H3122 cells after 72 hrs by SRB assay. The note with it: NCI-H3122, 72 h. In kind it is functional, cell-based.
Experiment [15] has as its system NCI-N87. The experiment is described as follows: Antiproliferative activity against human NCI-N87 cells after 72 hrs by SRB assay. The experiment is classed as functional, cell-based. The settings on record: NCI-N87, 72 h.
Experiment [16] deals with T1, Heat shock protein HSP90 (Homo sapiens) (UniProt P07900+P08238). Put plainly: Inhibition of Hsp90 in human NCI-H3122 cells assessed as decrease in ERK1/2 phosphorylation up to 1000 nM after 24 hrs by Western blot analysis. The experiment is classed as cell-based.
For experiment [17], the target named is T1, Heat shock protein HSP90 (Homo sapiens). The experiment is described as follows: Inhibition of Hsp90 in human NCI-H3122 cells assessed as decrease in ALK phosphorylation at Tyr1278 residues up to 1000 nM after 24 hrs by Western blot analysis. In kind it is cell-based.
For experiment [18] the target is unchanged. Put plainly: Inhibition of Hsp90 in human NCI-H3122 cells assessed as decrease in AKT phosphorylation at Ser473 residues up to 1000 nM after 24 hrs by Western blot analysis. In kind it is cell-based.
Experiment [19] shares this target. Put plainly: Inhibition of Hsp90 in human NCI-H3122 cells assessed as upregulation of Hsp70 after 24 hrs by Western blot analysis. In kind it is cell-based.

Usually IC50 stands for the concentration that inhibits the measured activity by half.

The source made the active and inactive calls. The calls are words filed in the database; no cut-off is given here. Bounds are passed on as bounds.

Sequence of ALK tyrosine kinase receptor (Homo sapiens, UniProt Q9UM73) (Q9UM73 whole entry): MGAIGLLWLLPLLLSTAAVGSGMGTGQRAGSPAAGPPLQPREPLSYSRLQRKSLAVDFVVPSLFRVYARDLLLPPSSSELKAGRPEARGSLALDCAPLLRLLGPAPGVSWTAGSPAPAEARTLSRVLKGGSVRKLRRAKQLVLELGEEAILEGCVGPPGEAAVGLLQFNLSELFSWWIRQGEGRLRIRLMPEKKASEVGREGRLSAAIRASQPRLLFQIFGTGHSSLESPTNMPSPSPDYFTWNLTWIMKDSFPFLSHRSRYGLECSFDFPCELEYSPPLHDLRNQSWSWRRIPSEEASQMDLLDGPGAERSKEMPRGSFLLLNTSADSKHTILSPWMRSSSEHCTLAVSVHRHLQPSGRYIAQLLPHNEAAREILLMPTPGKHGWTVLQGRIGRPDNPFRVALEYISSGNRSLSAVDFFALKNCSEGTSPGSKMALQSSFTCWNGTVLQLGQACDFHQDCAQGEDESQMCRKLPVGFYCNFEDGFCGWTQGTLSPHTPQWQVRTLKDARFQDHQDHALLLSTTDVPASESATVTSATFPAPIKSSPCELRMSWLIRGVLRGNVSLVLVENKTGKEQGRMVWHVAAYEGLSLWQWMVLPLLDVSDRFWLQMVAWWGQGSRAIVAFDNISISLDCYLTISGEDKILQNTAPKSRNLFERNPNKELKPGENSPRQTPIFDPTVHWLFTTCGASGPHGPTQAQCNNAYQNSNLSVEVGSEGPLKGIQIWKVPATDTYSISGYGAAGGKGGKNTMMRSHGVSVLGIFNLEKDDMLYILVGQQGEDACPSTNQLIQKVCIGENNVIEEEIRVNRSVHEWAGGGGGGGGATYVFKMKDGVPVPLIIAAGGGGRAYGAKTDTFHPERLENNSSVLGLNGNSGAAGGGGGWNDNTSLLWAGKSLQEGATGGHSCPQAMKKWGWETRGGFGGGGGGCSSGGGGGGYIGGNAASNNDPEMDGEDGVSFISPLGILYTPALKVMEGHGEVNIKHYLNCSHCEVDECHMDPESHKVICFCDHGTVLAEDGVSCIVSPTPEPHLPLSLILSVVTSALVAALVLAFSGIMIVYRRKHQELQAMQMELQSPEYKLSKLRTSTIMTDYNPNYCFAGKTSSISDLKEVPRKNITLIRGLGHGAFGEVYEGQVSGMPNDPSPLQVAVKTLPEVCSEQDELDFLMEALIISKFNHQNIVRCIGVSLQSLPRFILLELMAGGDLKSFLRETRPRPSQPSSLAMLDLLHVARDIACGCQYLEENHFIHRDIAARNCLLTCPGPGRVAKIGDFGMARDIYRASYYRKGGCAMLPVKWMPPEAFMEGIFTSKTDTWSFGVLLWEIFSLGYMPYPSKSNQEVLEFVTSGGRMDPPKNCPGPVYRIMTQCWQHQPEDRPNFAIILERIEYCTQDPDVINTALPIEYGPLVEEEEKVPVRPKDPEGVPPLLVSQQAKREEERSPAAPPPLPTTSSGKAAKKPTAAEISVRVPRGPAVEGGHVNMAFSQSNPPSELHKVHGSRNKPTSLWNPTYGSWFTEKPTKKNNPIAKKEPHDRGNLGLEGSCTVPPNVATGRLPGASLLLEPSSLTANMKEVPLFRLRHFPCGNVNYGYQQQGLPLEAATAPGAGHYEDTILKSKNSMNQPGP
Sequence of ALK tyrosine kinase receptor (Homo sapiens, UniProt Q9UM73, G1202R) (Q9UM73 19-1620 G1202R limits assumed): as the sequence (Q9UM73 19-1620 L1196M limits assumed) above, with M1178L, G1184R counted along it

Regarding `CCNC(=O)c1noc(-c2cc(C(C)C)c(O)cc2O)c1-c1ccc(CN2CCN(CC(=O)NCC(=O)Nc3ccc(OC)c(Nc4ncc(Cl)c(Nc5ccccc5S(=O)(=O)C(C)C)n4)c3)CC2)cc1`, the IC50 in experiment [1] turned out to be 36.4 nM; in experiment [2], 613 nM; in experiment [3] it was 6.9 nM; in experiment [4], 84.8 nM; in [5] it was 8.7 nM; in experiment [6], 135 nM. Besides, the IC50 in experiment [7] amounted to 367 nM; in [8], 624 nM; in [9], 495 nM; in experiment [10], 193 nM; in [11] it was 163 nM; in [12], 205 nM. Also, the IC50 amounted to 60 nM in experiment [13], 46 nM in experiment [14] and 230 nM in experiment [15].
For `COc1ccc(Nc2ncc(Cl)c(Nc3ccccc3S(=O)(=O)C(C)C)n2)cc1NC(=O)CNC(=O)c1noc(-c2cc(C(C)C)c(O)cc2O)c1-c1ccc(CN2CCOCC2)cc1`, the results for the IC50 in experiment [3], in [4] and in [14] were 958 nM, over 1000 nM and 319 nM, respectively.
For `COc1ccc(NC(=O)CNC(=O)CN2CCN(Cc3ccc4c(c3)CN(C(=O)c3cc(C(C)C)c(O)cc3O)C4)CC2)cc1Nc1ncc(Cl)c(Nc2ccccc2S(=O)(=O)C(C)C)n1`, in that order: 4.1 nM, 47 nM and 175 nM.
For `CCNC(=O)c1noc(-c2cc(C(C)C)c(O)cc2O)c1-c1ccc(C(=O)N2CCN(CC(=O)Nc3cccc(Nc4ncc(Cl)c(Nc5ccccc5S(=O)(=O)C(C)C)n4)c3)CC2)cc1`, in that order: 22.9 nM, 123 nM and 113 nM.
Regarding `COc1ccc(NC(=O)CN2CCN(Cc3ccc4c(c3)CN(C(=O)c3cc(C(C)C)c(O)cc3O)C4)CC2)cc1Nc1ncc(Cl)c(Nc2ccccc2S(=O)(=O)C(C)C)n1`, the IC50 in experiment [3] turned out to be 9.8 nM; in [4], 40 nM; in [5] it was 6 nM; in experiment [14] it was 13 nM. Further, the inhibition result in [16], in experiment [17] and in [18] was “Active” throughout. The inhibition entry in experiment [19] is “Dose-dependent effect”.
In the case of `CCNC(=O)c1noc(-c2cc(C(C)C)c(O)cc2O)c1-c1ccc(CN2CCN(CC(=O)Nc3ccc(OC)c(Nc4ncc(Cl)c(Nc5ccccc5S(=O)(=O)C(C)C)n4)c3)CC2)cc1`, the IC50 worked out at 85.5 nM in experiment [1]; 287 nM in experiment [2]; 17.3 nM in experiment [3]; 100 nM in experiment [4]; 6.2 nM in [5]; 104 nM in experiment [6]. The IC50 came out at 228 nM in [7]; 235 nM in [8]; 215 nM in experiment [9]; 82 nM in experiment [10]; 47 nM in experiment [11]; 237 nM in experiment [12]. For the same compound, the IC50 in experiment [13] came to 52 nM; in experiment [14], 11 nM; in experiment [15], 503 nM. In addition, the inhibition entry in experiment [16], in experiment [17] and in experiment [18] was “Active” each time. Moreover, in experiment [19], the inhibition result was “Dose-dependent effect”.
For the compound `CCNC(=O)c1noc(-c2cc(C(C)C)c(O)cc2O)c1-c1ccc(CNCC(=O)Nc2ccc(OC)c(Nc3ncc(Cl)c(Nc4ccccc4S(=O)(=O)C(C)C)n3)c2)cc1`, the IC50 stood at 24.2 nM in [3], 260 nM in [4] and 57 nM in experiment [14].
Regarding `CCNC(=O)c1noc(-c2cc(C(C)C)c(O)cc2O)c1-c1ccc(CN2CCOCC2)cc1` [LUMINESPIB], the IC50 in experiment [2] stood at 60 nM; in [6], 21 nM; in experiment [7] it was 21 nM; in experiment [8] it was 23 nM; in experiment [9] it was 30 nM; in [10], 16 nM. Further, the IC50 is 13 nM in experiment [11]; 31 nM in [12]; 14 nM in experiment [13]; 12.4 nM in experiment [14]; 83 nM in experiment [15].
On to `CCNC(=O)c1noc(-c2cc(C(C)C)c(O)cc2O)c1-c1ccc(CNCC(=O)Nc2cccc(Nc3ncc(Cl)c(Nc4ccccc4S(=O)(=O)C(C)C)n3)c2)cc1`, for which the values for the IC50 in [3], in [4] and in experiment [14] were 10.3 nM, 370 nM and 141 nM, respectively.
As for `COc1ccc(NC(=O)CNC(=O)c2noc(-c3cc(C(C)C)c(O)cc3O)c2-c2ccc(CN3CCOCC3)cc2)cc1Nc1ncc(Cl)c(Nc2ccccc2S(=O)(=O)C(C)C)n1`, the IC50 in experiment [3] was 108 nM; in experiment [4] it was over 1000 nM; in [14], 587 nM.
For `CCNC(=O)c1noc(-c2cc(C(C)C)c(O)cc2O)c1-c1ccc(C(=O)NCC(=O)Nc2ccc(OC)c(Nc3ncc(Cl)c(Nc4ccccc4S(=O)(=O)C(C)C)n3)c2)cc1`, in that order: 83.2 nM, over 1000 nM and 159 nM.
For `CC(C)c1cc(-c2onc(C(=O)NCC(=O)Nc3cccc(Nc4ncc(Cl)c(Nc5ccccc5S(=O)(=O)C(C)C)n4)c3)c2-c2ccc(CN3CCOCC3)cc2)c(O)cc1O`, in that order: 53.7 nM, over 1000 nM and 444 nM.
As for `CC(C)c1cc(C(=O)N2Cc3ccc(CN4CCN(C)CC4)cc3C2)c(O)cc1O` [ONALESPIB], the IC50 in experiment [4] is 13.6 nM; in experiment [14], 52 nM.
